This note sets out measurements from ChEMBL document CHEMBL1641548, “Fused bicyclic derivatives of 2,4-diaminopyrimidine as c-Met inhibitors” (Bioorg Med Chem Lett, 2011).

Format in all cases: ADME, organism-based
The nature of series [1]: Half life in rat at 1 mg/kg, iv. Set-up: dose 1 mg/kg, route intravenous. Conditions: in vivo.
A short description of series [2]: Clearance in rat at 1 mg/kg, iv. Set-up: dose 1 mg/kg, route intravenous. Conditions: in vivo.
Series [3] in a line: AUC (0 to infinity) in rat at 1 mg/kg, iv. Set-up: time infinity, dose 1 mg/kg, route intravenous. Conditions: plasma.
A short description of series [4]: AUC (0 to infinity) in rat at 5 mg/kg, po. On the set-up: time infinity, dose 5 mg/kg, route oral. Conditions: plasma.
A short description of series [5]: Oral bioavailability in rat at 5 mg/kg, po. Conditions: in vivo.

In general, half-life refers to how long it takes for the measured level to halve. High values mean slow decline, low ones rapid decline. For orientation: clearance means the volume of plasma or blood freed of the substance per unit of time. As usually defined, the AUC(0-inf) is total exposure, with the tail of the curve extrapolated. As usually defined, the bioavailability is dose-corrected exposure relative to a reference, in per cent. Consider `CNC(=O)c1cccc(F)c1Nc1nc(Nc2ccc3c(c2)NC(=O)CCC3)ncc1Cl`, for which the half-life in series [1] is 42 min. Besides, the clearance in series [2] stood at 15 mL/min/kg. Besides, the area under the curve AUC(0-inf) is 1260 ng·h/mL in series [3] and 592 ng·h/mL in series [4]. Further, the bioavailability in series [5] worked out at 8%.
